Laboratory results from publication PMC5218480 (PLoS ONE, 2017).

System: MV-4-11 cells
Test: Gene expression microarray analysis (Affymetrix PrimeView) and GSEA
Format: cell-based, human
Set-up: RFU PODN (11730768_x_at) / Fold change /veh PODN (11730768_x_at) / RFU LINC00158 (11744669_a_at) / Fold change /veh LINC00158 (11744669_a_at) / RFU DUSP10 (11751237_a_at) / Fold change /veh DUSP10 (11751237_a_at) / RFU ID3 (11757404_x_at) / Fold change /veh ID3 (11757404_x_at) / RFU PLEKHG5 (11737974_s_at) / Fold change /veh PLEKHG5 (11737974_s_at) / RFU LRRC4B (11730491_at) / Fold change /veh LRRC4B (11730491_at) / RFU GIMAP4 (11747438_a_at) / Fold change /veh GIMAP4 (11747438_a_at) / RFU KRT8 (11758183_x_at) / Fold change /veh KRT8 (11758183_x_at) / RFU CNN1 (11734310_a_at) / Fold change /veh CNN1 (11734310_a_at) / RFU VPS37D (11726825_at) / Fold change /veh VPS37D (11726825_at) / RFU C10orf10 (11716522_x_at) / Fold change /veh C10orf10 (11716522_x_at) / RFU KIR2DL2 /// KIR2DL4 /// KIR2DL5A /// KIR2DL5B /// KIR2DS1 /// KIR2DS2 /// KIR2DS3 /// KIR2DS4 /// KIR3DL3 /// KIR3DL3 /// KIR3DS1 (11738374_at) / Fold change /veh KIR2DL2 /// KIR2DL4 /// KIR2DL5A /// KIR2DL5B /// KIR2DS1 /// KIR2DS2 /// KIR2DS3 /// KIR2DS4 /// KIR3DL3 /// KIR3DL3 /// KIR3DS1 (11738374_at) / RFU C1QL1 (11718748_at) / Fold change /veh C1QL1 (11718748_at) / RFU TMPRSS4 (11747572_a_at) / Fold change /veh TMPRSS4 (11747572_a_at) / RFU HAMP (11756126_x_at) / Fold change /veh HAMP (11756126_x_at) / RFU RNFT2 (11725882_a_at) / Fold change /veh RNFT2 (11725882_a_at) / RFU NR4A2 (11747474_a_at) / Fold change /veh NR4A2 (11747474_a_at) / RFU ABCC12 (11746883_a_at) / Fold change /veh ABCC12 (11746883_a_at) / RFU TMEM136 (11760407_x_at) / Fold change /veh TMEM136 (11760407_x_at) / RFU CLDN22 /// WWC2 (11732394_at) / Fold change /veh CLDN22 /// WWC2 (11732394_at) / RFU HLA-DPB1 (11760878_x_at) / Fold change /veh HLA-DPB1 (11760878_x_at) / RFU SPINT1 (11716480_a_at) / Fold change /veh SPINT1 (11716480_a_at) / RFU GAP43 (11754022_s_at) / Fold change /veh GAP43 (11754022_s_at) / RFU A4GNT (11735810_at) / Fold change /veh A4GNT (11735810_at) / RFU PRB3 (11715151_x_at) / Fold change /veh PRB3 (11715151_x_at) / RFU TUBB4B (11761932_at) / Fold change /veh TUBB4B (11761932_at) / RFU CAPN14 (11732068_a_at) / Fold change /veh CAPN14 (11732068_a_at) / RFU TMCC2 (11721928_a_at) / Fold change /veh TMCC2 (11721928_a_at) / RFU IRGQ (11745062_a_at) / Fold change /veh IRGQ (11745062_a_at) / RFU FAM174B (11720279_a_at) / Fold change /veh FAM174B (11720279_a_at) / RFU TMPRSS4 (11748680_a_at) / Fold change /veh TMPRSS4 (11748680_a_at) / RFU FAM212B (11763350_a_at) / Fold change /veh FAM212B (11763350_a_at) / RFU PLEKHG5 (11743358_a_at) / Fold change /veh PLEKHG5 (11743358_a_at) / RFU ZSCAN30 (11745921_a_at) / Fold change /veh ZSCAN30 (11745921_a_at) / RFU CMKLR1 (11741424_a_at) / Fold change /veh CMKLR1 (11741424_a_at) / RFU LOC101060620 /// MAPK8IP1 (11723275_at) / Fold change /veh LOC101060620 /// MAPK8IP1 (11723275_at) / RFU SPTSSB (11747773_x_at) / Fold change /veh SPTSSB (11747773_x_at) / RFU PRSS12 (11739890_at) / Fold change /veh PRSS12 (11739890_at) / RFU BIN1 (11741810_x_at) / Fold change /veh BIN1 (11741810_x_at) / RFU WNT11 (11732464_a_at) / Fold change /veh WNT11 (11732464_a_at) / RFU C10orf10 (11716521_a_at) / Fold change /veh C10orf10 (11716521_a_at) / RFU C5orf56 (11738089_at) / Fold change /veh C5orf56 (11738089_at) / RFU CYB561 (11721691_x_at) / Fold change /veh CYB561 (11721691_x_at) / RFU ANKRD19P (11752326_a_at) / Fold change /veh ANKRD19P (11752326_a_at) / RFU OR2T12 /// OR2T33 /// OR2T8 (11738714_s_at) / Fold change /veh OR2T12 /// OR2T33 /// OR2T8 (11738714_s_at) / RFU VCAN (11748164_a_at) / Fold change /veh VCAN (11748164_a_at) / RFU JSRP1 (11732532_at) / Fold change /veh JSRP1 (11732532_at) / RFU KRTAP10-11 (11738290_x_at) / Fold change /veh KRTAP10-11 (11738290_x_at) / RFU MYO3A (11730013_a_at) / Fold change /veh MYO3A (11730013_a_at) / RFU EBF3 (11725865_a_at) / Fold change /veh EBF3 (11725865_a_at) / RFU CAMK2N1 (11719241_x_at) / Fold change /veh CAMK2N1 (11719241_x_at) / RFU C5orf56 (11738088_a_at) / Fold change /veh C5orf56 (11738088_a_at) / RFU OLFML3 (11715873_a_at) / Fold change /veh OLFML3 (11715873_a_at) / RFU LOC100653217 /// NTM (11731650_a_at) / Fold change /veh LOC100653217 /// NTM (11731650_a_at) / RFU MAPK11 (11762145_a_at) / Fold change /veh MAPK11 (11762145_a_at) / RFU FIZ1 (11724087_x_at) / Fold change /veh FIZ1 (11724087_x_at) / RFU OASL (11726364_x_at) / Fold change /veh OASL (11726364_x_at) / RFU SOX15 (11748057_x_at) / Fold change /veh SOX15 (11748057_x_at) / RFU CD79A (11719716_a_at) / Fold change /veh CD79A (11719716_a_at) / RFU HIST1H1D (11736915_at) / Fold change /veh HIST1H1D (11736915_at) / RFU CASKIN2 (11723855_a_at) / Fold change /veh CASKIN2 (11723855_a_at) / RFU LOC730098 (11760151_x_at) / Fold change /veh LOC730098 (11760151_x_at) / RFU OR4N2 (11742367_at) / Fold change /veh OR4N2 (11742367_at) / RFU PRRT2 (11749266_a_at) / Fold change /veh PRRT2 (11749266_a_at) / RFU SNX32 (11753110_a_at) / Fold change /veh SNX32 (11753110_a_at) / RFU CDHR5 (11726645_a_at) / Fold change /veh CDHR5 (11726645_a_at) / RFU RCAN1 (11760418_a_at) / Fold change /veh RCAN1 (11760418_a_at) / RFU FAM167A (11723789_a_at) / Fold change /veh FAM167A (11723789_a_at) / RFU FAM26E (11764081_at) / Fold change /veh FAM26E (11764081_at) / RFU ISYNA1 (11749810_s_at) / Fold change /veh ISYNA1 (11749810_s_at) / RFU ACY1 (11761880_at) / Fold change /veh ACY1 (11761880_at) / RFU 11764098_at / Fold change /veh 11764098_at / RFU SAMD14 (11745864_x_at) / Fold change /veh SAMD14 (11745864_x_at) / RFU NPB (11741838_a_at) / Fold change /veh NPB (11741838_a_at) / RFU TMPRSS6 (11731388_a_at) / Fold change /veh TMPRSS6 (11731388_a_at) / RFU KRTAP10-2 (11738614_at) / Fold change /veh KRTAP10-2 (11738614_at) / RFU ARHGAP8 /// PRR5-ARHGAP8 (11727945_x_at) / Fold change /veh ARHGAP8 /// PRR5-ARHGAP8 (11727945_x_at) / RFU KRTAP5-7 /// NADSYN1 (11734609_at) / Fold change /veh KRTAP5-7 /// NADSYN1 (11734609_at) / RFU RASL12 (11751679_a_at) / Fold change /veh RASL12 (11751679_a_at) / RFU CDKN2B (11736163_a_at) / Fold change /veh CDKN2B (11736163_a_at) / RFU PRF1 (11729649_at) / Fold change /veh PRF1 (11729649_at) / RFU, ZNF638 /// ZNF638-IT1 / Fold change vs veh, ZNF638 /// ZNF638-IT1 / RFU, PANK3 / Fold change vs veh, PANK3 / RFU, SH3YL1 / Fold change vs veh, SH3YL1 / RFU, ZEB2 / Fold change vs veh, ZEB2 / RFU, NRIP1 / Fold change vs veh, NRIP1 / RFU, PTTG1IP / Fold change vs veh, PTTG1IP / RFU, CAPN2 / Fold change vs veh, CAPN2 / RFU, MED14 / Fold change vs veh, MED14 / RFU, SNORA58 / Fold change vs veh, SNORA58 / RFU, C1orf63 / Fold change vs veh, C1orf63 / RFU, LRRFIP1 / Fold change vs veh, LRRFIP1 / RFU, NDUFAF7 / Fold change vs veh, NDUFAF7 / RFU, SLC12A2 / Fold change vs veh, SLC12A2 / RFU, IBTK / Fold change vs veh, IBTK / RFU, ESF1 / Fold change vs veh, ESF1 / Fold change vs veh, TMEM50B / RFU, TAOK1 / Fold change vs veh, TAOK1 / RFU, ACBD3 / Fold change vs veh, ACBD3 / RFU, TMA16 / Fold change vs veh, TMA16 / RFU, RWDD3 / Fold change vs veh, RWDD3 / RFU, BCAT1 / Fold change vs veh, BCAT1 / RFU, EDEM3 / Fold change vs veh, EDEM3 / RFU, TMEM33 / Fold change vs veh, TMEM33 / RFU, WDR75 / Fold change vs veh, WDR75 / RFU, AHCTF1 / Fold change vs veh, AHCTF1 / RFU, TFRC / Fold change vs veh, TFRC / RFU, ZDHHC17 / Fold change vs veh, ZDHHC17 / RFU, NOM1 / Fold change vs veh, NOM1 / RFU, ARL8B / Fold change vs veh, ARL8B / RFU, ZBTB11 / Fold change vs veh, ZBTB11 / RFU, TAMM41 / Fold change vs veh, TAMM41 / RFU, KIAA1704 /// LOC100996395 / Fold change vs veh, KIAA1704 /// LOC100996395 / RFU, ING1 / Fold change vs veh, ING1 / RFU, TRMT61B / Fold change vs veh, TRMT61B / RFU, FUBP3 / Fold change vs veh, FUBP3 / RFU, TP53 / Fold change vs veh, TP53 / RFU, TNKS2 / Fold change vs veh, TNKS2 / RFU, ZFP14 / Fold change vs veh, ZFP14 / RFU, ACTR2 / Fold change vs veh, ACTR2 / RFU, PPP3R1 / Fold change vs veh, PPP3R1 / RFU, PIK3R1 / Fold change vs veh, PIK3R1 / RFU, HNRNPA1 / Fold change vs veh, HNRNPA1 / RFU, RNF170 / Fold change vs veh, RNF170 / RFU, ZNF28 / Fold change vs veh, ZNF28 / RFU, RNGTT / Fold change vs veh, RNGTT / RFU, OGT / Fold change vs veh, OGT / RFU, BRD1 / Fold change vs veh, BRD1 / RFU, MARS / Fold change vs veh, MARS / RFU, ZNF655 / Fold change vs veh, ZNF655 / RFU, FAHD1 / Fold change vs veh, FAHD1 / RFU, BDP1 / Fold change vs veh, BDP1 / RFU, LRRCC1 / Fold change vs veh, LRRCC1 / RFU, ARID1A / Fold change vs veh, ARID1A / RFU, ZNF146 / Fold change vs veh, ZNF146 / RFU, ZNF330 / Fold change vs veh, ZNF330 / RFU, GPN3 / Fold change vs veh, GPN3 / RFU, C9orf123 / Fold change vs veh, C9orf123 / RFU, N4BP2L2 / Fold change vs veh, N4BP2L2 / RFU, ARFIP1 / Fold change vs veh, ARFIP1 / RFU, FAM179B / Fold change vs veh, FAM179B / RFU, BCL10 / Fold change vs veh, BCL10 / RFU, UHRF1BP1L / Fold change vs veh, UHRF1BP1L / RFU, BET1 / Fold change vs veh, BET1 / RFU, CNOT2 / Fold change vs veh, CNOT2 / RFU, ZNF268 / Fold change vs veh, ZNF268 / Fold change vs veh, ZNF507 / RFU, DGCR2 / Fold change vs veh, DGCR2 / RFU, WDSUB1 / Fold change vs veh, WDSUB1 / Fold change vs veh, HSP90B1 /// MIR3652 / RFU, ADSS / Fold change vs veh, ADSS / RFU, GK / Fold change vs veh, GK / RFU, ZNF148 / Fold change vs veh, ZNF148 / RFU, TAF9 / Fold change vs veh, TAF9 / RFU, SLC1A5 / Fold change vs veh, SLC1A5 / RFU, SLMO2 / Fold change vs veh, SLMO2 / RFU, ABCC4 / Fold change vs veh, ABCC4 / RFU, LOC101060439 /// RAP1B / Fold change vs veh, LOC101060439 /// RAP1B / RFU, RFX7 / Fold change vs veh, RFX7 / RFU, GTPBP10 / Fold change vs veh, GTPBP10 / RFU, CNEP1R1 / Fold change vs veh, CNEP1R1 / RFU, BIVM-ERCC5 /// ERCC5 / Fold change vs veh, BIVM-ERCC5 /// ERCC5 / RFU, ILF3 / Fold change vs veh, ILF3 / RFU 11762660_at / Fold change /veh 11762660_at / RFU VCAN (11757783_s_at) / Fold change /veh VCAN (11757783_s_at) / RFU DDX43 (11728927_at) / Fold change /veh DDX43 (11728927_at) / RFU KRT8 (11758188_x_at) / Fold change /veh KRT8 (11758188_x_at) / RFU NKD1 (11759106_at) / Fold change /veh NKD1 (11759106_at) / RFU SRD5A1 (11742802_a_at) / Fold change /veh SRD5A1 (11742802_a_at) / RFU TPSAB1 /// TPSB2 (11721975_s_at) / Fold change /veh TPSAB1 /// TPSB2 (11721975_s_at) / RFU GSTM3 (11746129_a_at) / Fold change /veh GSTM3 (11746129_a_at) / RFU IL23R (11737362_x_at) / Fold change /veh IL23R (11737362_x_at) / RFU TMEM51 (11727254_a_at) / Fold change /veh TMEM51 (11727254_a_at) / RFU PIWIL2 (11732686_x_at) / Fold change /veh PIWIL2 (11732686_x_at) / RFU ORM1 (11744905_x_at) / Fold change /veh ORM1 (11744905_x_at) / RFU CCDC152 (11743942_at) / Fold change /veh CCDC152 (11743942_at) / RFU ECM1 (11717891_a_at) / Fold change /veh ECM1 (11717891_a_at) / RFU IL23R (11748794_a_at) / Fold change /veh IL23R (11748794_a_at) / RFU TNFAIP8L3 (11732012_x_at) / Fold change /veh TNFAIP8L3 (11732012_x_at) / RFU MBOAT4 (11741988_at) / Fold change /veh MBOAT4 (11741988_at) / RFU 11764193_at / Fold change /veh 11764193_at / RFU TMEM53 (11763286_at) / Fold change /veh TMEM53 (11763286_at) / RFU MAGEB2 (11727129_at) / Fold change /veh MAGEB2 (11727129_at) / RFU TMEM200A (11744735_a_at) / Fold change /veh TMEM200A (11744735_a_at) / RFU CCDC152 (11751479_a_at) / Fold change /veh CCDC152 (11751479_a_at) / RFU FAM211A (11726209_a_at) / Fold change /veh FAM211A (11726209_a_at) / RFU RGS16 (11746705_a_at) / Fold change /veh RGS16 (11746705_a_at) / RFU VCAN (11755009_s_at) / Fold change /veh VCAN (11755009_s_at) / RFU RHOB (11743442_s_at) / Fold change /veh RHOB (11743442_s_at) / RFU RGS16 (11720943_a_at) / Fold change /veh RGS16 (11720943_a_at) / RFU RGS16 (11720944_at) / Fold change /veh RGS16 (11720944_at) / RFU, VPS4B / Fold change vs veh, VPS4B / RFU, CREB1 / Fold change vs veh, CREB1 / RFU, DNAJC13 / Fold change vs veh, DNAJC13 / RFU, GNAQ / Fold change vs veh, GNAQ / RFU, CDK5R1 / Fold change vs veh, CDK5R1 / RFU, ZRANB3 / Fold change vs veh, ZRANB3 / RFU, CUL4A / Fold change vs veh, CUL4A / RFU, CCNY / Fold change vs veh, CCNY / RFU, UFL1 / Fold change vs veh, UFL1 / RFU, COG3 / Fold change vs veh, COG3 / RFU, DIAPH2 / Fold change vs veh, DIAPH2 / RFU, SKA2 / Fold change vs veh, SKA2 / RFU, AFF3 / Fold change vs veh, AFF3 / RFU, LMF1 / Fold change vs veh, LMF1 / RFU, IPO11 / Fold change vs veh, IPO11 / RFU, DFFB / Fold change vs veh, DFFB / RFU, FOXP1 / Fold change vs veh, FOXP1 / RFU, CARD8 / Fold change vs veh, CARD8 / RFU, STRN3 / Fold change vs veh, STRN3 / RFU, ADK / Fold change vs veh, ADK / RFU, RASSF2 / Fold change vs veh, RASSF2 / RFU, WIPF1 / Fold change vs veh, WIPF1 / RFU, LARP1B / Fold change vs veh, LARP1B / RFU, RASA1 / Fold change vs veh, RASA1 / RFU, RB1 / Fold change vs veh, RB1 / RFU, PPFIA1 / Fold change vs veh, PPFIA1 / RFU, MAT2A / Fold change vs veh, MAT2A / RFU, CCT5 / Fold change vs veh, CCT5 / RFU, WDR92 / Fold change vs veh, WDR92 / RFU, CUX1 / Fold change vs veh, CUX1 / RFU, TTC7A / Fold change vs veh, TTC7A / RFU, TMEM135 / Fold change vs veh, TMEM135 / RFU, DEPTOR / Fold change vs veh, DEPTOR / RFU, CPM / Fold change vs veh, CPM / RFU, DNAJB6 / Fold change vs veh, DNAJB6 / RFU, CACNA2D3 / Fold change vs veh, CACNA2D3 / RFU, DTX4 / Fold change vs veh, DTX4 / RFU, TFCP2 / Fold change vs veh, TFCP2 / RFU, GMCL1 /// GMCL1P1 / Fold change vs veh, GMCL1 /// GMCL1P1 / RFU, AEBP2 / Fold change vs veh, AEBP2 / RFU, SNHG1 /// SNORD22 /// SNORD25 /// SNORD26 /// SNORD27 /// SNORD28 /// SNORD29 /// SNORD31 / Fold change vs veh, SNHG1 /// SNORD22 /// SNORD25 /// SNORD26 /// SNORD27 /// SNORD28 /// SNORD29 /// SNORD31 / Fold change (Aza/veh), C12orf56 (ProbeSet 11735607_a_at) / Fold change (ACY-1035/veh), C12orf56 (ProbeSet 11735607_a_at) / Fold change (Aza/veh), FGFR1OP (ProbeSet 11751329_s_at) / Fold change (ACY-1035/veh), FGFR1OP (ProbeSet 11751329_s_at) / Fold change (Aza/veh), VPS36 (ProbeSet 11739960_a_at) / Fold change (ACY-1035/veh), VPS36 (ProbeSet 11739960_a_at) / RFU SYPL1 (11715823_x_at) / Fold change /veh SYPL1 (11715823_x_at) / RFU IGFBP7 (11715501_s_at) / Fold change /veh IGFBP7 (11715501_s_at) / RFU REEP3 (11722064_at) / Fold change /veh REEP3 (11722064_at) / RFU IGLL1 (11728026_x_at) / Fold change /veh IGLL1 (11728026_x_at): dose or concentration left out as unconfirmed
Conditions: ProbeSet 11763895_x_at; LIST B

Nc1ccc(-c2cccs2)cc1NC(=O)c1ccc2c(c1)cc(C1CC1)n2CCN1CCOCC1 [ACY-1035]
Fold change vs veh, SNORA58: 0.89
